From BindingDB's records for patent US20240351997 (Shanghai Qilu Pharmaceutical Research and Development Centre, 2024) come the findings set out here.

Structures are written as SMILES.

In this test the target is T1, Protein mono-ADP-ribosyltransferase TIPARP (Homo sapiens, UniProt Q7Z3E1).
T1 sequence (Q7Z3E1 whole entry): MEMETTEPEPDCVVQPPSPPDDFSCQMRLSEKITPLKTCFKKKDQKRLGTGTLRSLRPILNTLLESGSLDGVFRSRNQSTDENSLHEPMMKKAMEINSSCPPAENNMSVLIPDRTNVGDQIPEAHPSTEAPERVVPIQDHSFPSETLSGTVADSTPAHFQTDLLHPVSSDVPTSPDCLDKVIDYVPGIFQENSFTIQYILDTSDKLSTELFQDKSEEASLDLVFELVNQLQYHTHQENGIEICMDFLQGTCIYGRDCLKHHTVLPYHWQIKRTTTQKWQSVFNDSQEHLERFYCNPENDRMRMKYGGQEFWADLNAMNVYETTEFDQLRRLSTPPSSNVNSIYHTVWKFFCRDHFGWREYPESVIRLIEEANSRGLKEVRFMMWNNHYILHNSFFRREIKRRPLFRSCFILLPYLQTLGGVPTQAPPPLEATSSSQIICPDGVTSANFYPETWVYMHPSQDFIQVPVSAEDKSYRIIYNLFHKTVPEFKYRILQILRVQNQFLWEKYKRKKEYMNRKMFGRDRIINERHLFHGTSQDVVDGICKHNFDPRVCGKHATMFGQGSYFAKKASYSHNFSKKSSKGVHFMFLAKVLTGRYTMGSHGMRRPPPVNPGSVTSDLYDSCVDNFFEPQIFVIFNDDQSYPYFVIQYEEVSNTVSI
Description: In Vitro Enzymology Experiment of PARP2, 3, 5A, 5B, 7, 12, and 15. The protocol:
1. Preparation of 384-well histone-coated plate: 25 μL of histone solution was added to each well, and the plate was incubated overnight at 4° C.2. Preparation of PBST buffer, blocking buffer, and assay buffer3. The 384-well histone-coated plate was washed three times with PBST buffer. The plate was blocked by 50 μL of blocking buffer for 1 hour at room temperature. The plate was then washed three times with PBST buffer.4. Compound preparation:2000× compound was prepared in a 96-well source plate. 50 nL of the compound was transferred from the source plate to a 96-well intermediate plate, and 39.95 μL of assay buffer was added to each well. The plate was shaken well and centrifuged at 1000 rpm for 1 minute.5 μL of compound DMSO solution was transferred to each well.5. […] Detection:25 μL of Stre-HRP was added.The plate was incubated at room temperature for 1 hour and washed three times with PBS buffer.25 μL of QuantaRed Enhancer mix was added. The plate was incubated for 10 minutes.2.5 μL of QuantaRed Stop Solution was added to terminate the peroxidase reaction, and the plate was shaken for 10 to 30 seconds.7. […] Data processingUsing equation (1) to fit the data in Excel to obtain inhibition valuesinh%=(Max-Signal)/(Max-Min)*100Equation(1)Using equation (2) to fit the data in XL-Fit to obtain IC50 valuesY=Bottom+(Top-Bottom)/(1+(IC5 0/X)*HillSlopeEquation(2)Y is the percentage of inhibition, and X is the compound concentration.
As to `Nc1cc(C(F)(F)F)cnc1N1CCN(C(=O)OCCc2c[nH]c(=O)c(C(F)(F)F)c2)CC1` [US20240351997, Example 131], the 50% inhibitory concentration (IC50) (in general, the concentration that gives 50% inhibition) is 1.3 nM. Turning to `O=C(Oc1cccc(-c2c[nH]c(=O)c(C(F)(F)F)c2)c1)N1CCN(c2ncc(C(F)(F)F)cn2)[C@@H](CO)C1` [US20240351997, Example 143], the IC50 worked out at 0.61 nM. Regarding `O=C(Oc1cccc(-c2c[nH]c(=O)c(C(F)(F)F)c2)c1)N1CCN(c2ncc(C(F)(F)F)cn2)[C@@H](CO)C1` [US20240351997, Example 141], half-maximal inhibition (IC50) was put at 0.85 nM. Regarding `Cc1cnc(N2C[C@@H](C)N(C(=O)OCCc3c[nH]c(=O)c(C(F)(F)F)c3)C[C@H]2C)nc1` [US20240351997, Example 167], the IC50 is 1.5 nM. As to `C[C@@H]1CN(c2ncc(C3CC3)cn2)[C@H](C)CN1C(=O)OCCc1c[nH]c(=O)c(C(F)(F)F)c1` [US20240351997, Example 180], the IC50 was 1 nM. `O=C(Oc1cccc(-c2c[nH]c(=O)c(C(F)(F)F)c2)c1)N1CCN(c2ncc(C(F)(F)F)cn2)[C@H](CO)C1` [US20240351997, Example 142] showed an IC50 of 0.74 nM.
